One experiment relates to H1299. Kind of experiment: Proliferation assay (MTS), lung cancer cell line. It is filed as cell-based. Particulars: Homo sapiens, NCI-H1299, 72 h, determined at day 3. On the procedure:
Proliferation of Glioma cell lines: U87 MG and C6 under the treatment of DBZIM was examined using 3-(4,5-dimethylthiazol-2-yl)-5-(3-carboxymethoxyphenyl)-2-(4-sulfophenyl)-2H-tetrazolium (MTS) based proliferation assay kit (Promega, Wis., USA). MTS reagent was added to the control and treated cells (after 48 hr) directly and the absorbance signal was read at 490 nm using a Tecan Safire II plate reader.
The IC50 value (determined at day 3) was 50 μM for H1299 (lung cancer); 50 μM for MCF-7 (breast cancer), and 40 μM for AGS gastric cancer at day 3 (Table 3).

Experiment [1] deals with HLE cells. Kind of experiment: DNA content analysis (cell cycle) in HLE cells. It is filed as cell-based, human. Particulars: 0, 1, 3 mM, 24 hr. The method, then:
FIG. 21. DBZIM inhibited cell proliferation and disrupted cell cycle in HLE cells (A). DBZIM inhibited HCC cell proliferation. HLE cells were seeded at a density of 5000 cells/well in 96-well plate, and cultured for 18-24 h in 10% […] DMEM before the addition of various compounds (0-1.25 mM) in 10% FBS DMEM for 48 h of proliferation before assaying. Cell count was calculated based on Hoechst dye staining and BrdU incorporation was based on the total fluorescence intensity of antibody staining. (B). DBZIM arrested HCC cells at G0/G1 phase. HLE cells were incubated with DBZIM (0, 1, 3 mM) for 24 hr before fixation and DAPI staining for DNA content (2N vs. 4N) determination.
HLE cells grown in a 96-well plate were treated with compounds in 6 replicates for 24 hr. Cells were then fixed with 4% paraformaldehyde and stained with DAPI. Cells were analyzed and imaged on ArrayScan VTI HCS reader (Thermal Scientific, PA, USA) and DNA content (2N vs. 4N) was determined based on DAPI staining.

The subject of experiment [2] is liver fibrosis induced by thioacetamide (TAA). The experiment can be described thus: Liver fibrosis in mice induced by thioacetamide (TAA). Format: in vivo, mouse. Particulars: TAA model, 500 mg/L in drinking water, 12 weeks. The method, then: FIG. 15 Effect of DBZIM and DPIM on liver fibrosis in mice. DBZIM was tested on mice induced by (a) liver toxin thioacetamide (TAA) or by (b) bile duct ligation (BDL). DPIM was also tested on mice induced by TAA (data not shown)) or by (c) bile duct ligation (BDL).
For the liver toxin thioacetamide (TAA) model, TAA was given by i.p. injection at 200 mg/kg body weight, 3 times per week, for 12 weeks, to induce hepatic fibrosis in mice. For the bile duct ligation model (BDL), adult mice were anesthetized with Ketamine (150 mg/kg)/Xylazine (10 mg/kg) via i.p. injection. An abdominal incision at the midline is made to expose the common bile conduct, which was then ligated using 5-0 silk suture. In the control animal, the bile duct is exposed, but not ligated. DBZIM or DPIM was provided to the mice in drinking water at concentrations from 1 to 1000 mg/liter. The collagen content in the fibrotic liver was assessed by the Sirius Red staining of the liver tissue sections.

Experiment [3] concerns HLE cells. The experiment can be described thus: ROS determination in HLE cells (dihydroethidium). It is filed as cell-based, human. The following applies: millimolar range, 24 hr. On the procedure: FIG. 27. High dose DBZIM induced ROS production in HLE cells. HLE cells were grown in 96-Well plate and treated by DBZIM for 24 hr. The cells were then fixed and stained by DHE for quantification of ROS generation. The images ware acquired and analyzed using ArrayScan VTI HCS reader (Thermal Scientific, PA, USA) and Target Activation BioApplication software.
Oxidative stress was measured using Cellomic HitKit (Thermo Scientific, IL, USA). HLE cells were treated with DBZIM for 24 hr, fixed and labeled by Dihydroethidium probe for quantitation of ROS generation and Hoechst dye for nuclear staining. The result was analyzed by Target Activation BioApplication software. The percentage of positive responding cells was plotted as the indication of ROS amount.

`[Br-].c1ccc(Cn2cc[n+](Cc3ccccc3)c2)cc1` [DBZIM, 1,3-bisbenzylimidazolium bromide] showed an IC50 in the experiment on H1299 of 50 µM. The cell cycle arrest result in the experiment with HLE cells [1] is “arrested HLE cells in the G0/G1 phase”. Besides, the “liver fibrosis (Sirius Red collagen)” value in experiment [2] is listed as “attenuated fibrosis”. Moreover, in the experiment on HLE cells [3], the ROS generation entry was “generated significant amount of ROS”.

As usually defined, the IC50 is the midpoint of a concentration-inhibition curve.

These data come from US9072729B2, “Method for treating fibrosis and cancer with imidazolium and imidazolinium compounds” (Agency for Science, Technology and Research, priority 2008, dated 2015).
